Measured values reported in US20140256660A1, “ANTIBIOTIC CONJUGATES LINKED WITH STEROID DRUGS” (Allergan, Inc., priority 2013, published 2014).

Test system: human recombinant carboxylesterases
Assay: In vitro metabolic stability (rate of metabolite formation) in human recombinant carboxylesterases
Assay type: in vitro ADME
Conditions: human recombinant carboxylesterases 0.1 mg/mL, 1 μM test compound, pH 6.0, 37° C.
Procedure: Dutch Belted rabbits were euthanized with an overdose of sodium pentobarbital. The corneas were collected and homogenized in ice-cold potassium chloride solution (pH=7.4). The homogenate was centrifuged at 755×g for 30 min at 4° C. and aliquots of the supernatant were stored at or below −70° C. until metabolism experiments were conducted. Prior to storing the homogenates an aliquot was removed for determination of protein concentrations by calculating the 260 nm absorbance using a spectrophotometer. Human recombinant carboxylesterases were purchased from a commercial vendor (BD Gentest™, Bedford, Mass.)
All metabolic stability experiments were performed in triplicate in 96-well plate format. The final incubation mixture contained 1 μM test compound, 0.3 mg/mL corneal protein homogenate or 0.1 mg/mL human recombinant carboxylesterase mixture in a final volume of 0.5 mL 0.1 M potassium phosphate buffer (pH=6.0). The final percentage of solvent in the incubation was less than 1.0% to prevent inhibition of enzymatic activity. Following a pre-incubation at 37° C., test article (i.e. ester linked hybrids) was added to initiate the reaction. At designated time points (typically less than 60 minutes to capture the linear range of metabolite formation), 0.05 mL aliquots were removed from the incubation mixtures using a clean pipet tip and immediately placed in organic solvent to stop any esterase activity.
Hydrolysis of the metabolites was confirmed to be due to esterase activity and not chemical lability. The samples were analyzed by liquid chromatography with mass spectrometry (LC-MS/MS) detection to determine the metabolite concentrations resulting from the metabolism of ester linked hybrids. Internal standards were used to compensate for variability from sample processing, chromatographic elution, mass spectrometer response and ion suppression by matrix components.

Row | SMILES | Rate of formation Metabolite 2 (Moxifloxacin) | Rate of formation Metabolite 1 (Prednisolone) | Rate of formation Metabolite 1 (Dexamethasone) | Rate of formation Metabolite 2 (Gatifloxacin)
1 | COc1c(N2CC3CCCN(C(=O)OCOC(=O)CCC(=O)OCC(=O)[C@]4(O)CC[C@@H]5[C@H]6CCC7=CC(=O)C=C[C@@]7(C)[C@@H]6[C@H](O)C[C@]54C)C3C2)c(F)cc2c(=O)c(C(=O)O)cn(C3CC3)c12 (relative stereo) [Compound 59, rel-1-cyclopropyl-7-[1-({[(4-{2-[(8R,9R,10S,11R,13R,14R,17S)-11,17-dihydroxy-10,13-dimethyl-3-oxo-6,7,8,9,10,11,12,13,14,15,16,17-dodecahydro-3H-cyclopenta[a]phenanthren-17-yl]-2-oxoethoxy}-4-oxobutanoyl)oxy]methoxy}carbonyl)octahydro-6H-pyrrolo[3,4-b]pyridin-6-yl]-6-fluoro-8-methoxy-4-oxo-1,4-dihydroquinoline-3-carboxylic acid] | 350 ± 180 nM/min/mg | 416 ± 192 nM/min/mg | – | –
2 | COc1c(N2C[C@@H]3CCCN[C@@H]3C2)c(F)cc2c(=O)c(C(=O)OCOC(=O)OCC(=O)[C@]3(O)CC[C@@H]4[C@H]5CCC6=CC(=O)C=C[C@@]6(C)C5[C@H](O)C[C@]43C)cn(C3CC3)c12 (relative stereo) [Compound 64, [({2-[(8R,10S,11R,13R,14R,17S)-11,17-dihydroxy-10,13-dimethyl-3-oxo-6,7,8,9,10,11,12,13,14,15,16,17-dodecahydro-3H-cyclopenta[a]phenanthren-17-yl]-2-oxoethoxy}carbonyl)oxy]methyl rel-1-cyclopropyl-6-fluoro-8-methoxy-7-[(4aS,7aS)-octahydro-6H-pyrrolo[3,4-b]pyridin-6-yl]-4-oxo-1,4-dihydroquinoline-3-carboxylate] | 644 ± 20 nM/min/mg | 641 ± 22 nM/min/mg | – | –
3 | COc1c(N2CCN(C(=O)OCOC(=O)CCC(=O)OCC(=O)[C@@]3(O)[C@H](C)CC4C5CCC6=CC(=O)C=C[C@]6(C)[C@@]5(F)[C@@H](O)C[C@@]43C)C(C)C2)c(F)cc2c(=O)c(C(=O)O)cn(C3CC3)c12 (relative stereo) [Compound 11, rel-1-cyclopropyl-6-fluoro-7-[4-({[(4-{2-[(9R,10S,11S,13S,16R,17R)-9-fluoro-11,17-dihydroxy-10,13,16-trimethyl-3-oxo-6,7,8,9,10,11,12,13,14,15,16,17-dodecahydro-3H-cyclopenta[a]phenanthren-17-yl]-2-oxoethoxy}-4-oxobutanoyl)oxy]methoxy}carbonyl)-3-methylpiperazin-1-yl]-8-methoxy-4-oxo-1,4-dihydroquinoline-3-carboxylic acid] | – | – | 44.5 ± 2.62 nM/min/mg | 56 ± 2.1 nM/min/mg
4 | COc1c(N2CC3CCCN(C(=O)OCOC(=O)CCC(=O)N[C@@H](C(=O)OCC(=O)[C@]4(O)CCC5C6CCC7=CC(=O)C=C[C@@]7(C)C6[C@H](O)C[C@]54C)C(C)C)C3C2)c(F)cc2c(=O)c(C(=O)O)cn(C3CC3)c12 (relative stereo) [Compound 61, rel-1-cyclopropyl-7-{1-[(10R)-14-[(10S,11R,13R,17S)-11,17-dihydroxy-10,13-dimethyl-3-oxo-6,7,8,9,10,11,12,13,14,15,16,17-dodecahydro-3H-cyclopenta[a]phenanthren-17-yl]-5,8,11,14-tetraoxo-10-(propan-2-yl)-2,4,12-trioxa-9-azatetradecan-1-oyl]octahydro-6H-pyrrolo[3,4-b]pyridin-6-yl}-6-fluoro-8-methoxy-4-oxo-1,4-dihydroquinoline-3-carboxylic acid] | 18.5 ± 1.7 nM/min/mg | 11.8 ± 0.5 nM/min/mg | – | –
5 | COc1c(N2CCNC(C)C2)c(F)cc2c(=O)c(C(=O)OCOC(=O)CCC(=O)OCC(=O)[C@]3(O)CC[C@@H]4[C@H]5CCC6=CC(=O)C=C[C@@]6(C)C5[C@H](O)C[C@]43C)cn(C3CC3)c12 (relative stereo) [Compound 44, ({[1-cyclopropyl-6-fluoro-8-methoxy-7-(3-methylpiperazin-1-yl)-4-oxo-1,4-dihydroquinolin-3-yl]carbonyl}oxy)methyl 2-[(8R,10S,11R,13R,14R,17S)-11,17-dihydroxy-10,13-dimethyl-3-oxo-6,7,8,9,10,11,12,13,14,15,16,17-dodecahydro-3H-cyclopenta[a]phenanthren-17-yl]-2-oxoethyl rel-butanedioate] | – | 365 ± 32 nM/min/mg | – | 760 ± 110 nM/min/mg
6 | COc1c(N2C[C@H]3CCCN[C@H]3C2)c(F)cc2c(=O)c(C(=O)OCCCOC(=O)c3ccc(C(=O)OCC(=O)[C@@]4(O)[C@H](C)C[C@H]5[C@@H]6CCC7=CC(=O)C=C[C@]7(C)[C@@]6(F)[C@@H](O)C[C@@]54C)cc3)cn(C3CC3)c12 (relative stereo) [Compound 54, 3-[({1-cyclopropyl-6-fluoro-8-methoxy-7-[(4aR,7aR)-octahydro-6H-pyrrolo[3,4-b]pyridin-6-yl]-4-oxo-1,4-dihydroquinolin-3-yl}carbonyl)oxy]propyl 2-[(8S,9R,10S,11S,13S,14S,16R,17R)-9-fluoro-11,17-dihydroxy-10,13,16-trimethyl-3-oxo-6,7,8,9,10,11,12,13,14,15,16,17-dodecahydro-3H-cyclopenta[a]phenanthren-17-yl]-2-oxoethyl rel-benzene-1,4-dicarboxylate] | 0.717 ± 0.625 nM/min/mg | – | 67.8 ± 1.78 nM/min/mg | –
